“And” between values parts separate entries of the source, which are not always exact repeats. Equal entries are not always repeated.
Legend:
HGC-27 cells = assay: siRNA screening based on cell growth; set-up: species or system human; settings: Figure 2B source data; siRNA against the named gene; Z score based analysis
Method: For screening based on cell growth, HGC-27 cells (2000 per well) were seeded into a 96-well plate overnight. The individual siRNAs targeting 192 BioID-identified genes were then added into each well to a final concentration of 25 nM. After subsequent incubation for 48 h, the cells were analyzed using an ATP-based CellCounting-Lite^TM 2.0 reagent (Vazyme, Nanjing, China) according to the manufacturer’s instructions. The intracellular ATP contents were measured using an EnSight™ Multimode Microplate Reader (Perkin Elmer).

GFP-TEAD4 condensates = assay: siRNA screening based on TEAD4 condensate; assay type: cell-based; settings: Figure 2B source data; siRNA against the named gene; Z score based analysis
Method: siRNA reagents were obtained from the Dharmacon Human ON-TARGETplus siRNA Smartpool Library (Thermo) as described previously (Tang et al, [2020]). […] Lipofectamine RNAiMAX reagent (Thermo) at a volume of 0.05 μl per well was then added to the siRNA-loaded plates. Subsequently, cells expressing GFP-TEAD4 were seeded into the plate at 2000 cells per well. After subsequent transfection for 48 h, the cells were fixed with 4% PFA at room temperature for 30 min. DAPI was used to identify individual nuclei. The plates were kept at 4 °C in the dark before being analyzed using the Opera system. Twenty focus fields per well were scanned and analyzed. Scrambled siRNA was used as an internal reference on each plate.

[1] = tested on: GFP-TEAD4 condensates in HEK293FT cells; assay: GFP-TEAD4 condensate imaging, condensed fraction in cells; assay type: cell-based; settings: Figure 2D source data, GFP-TEAD4 condensates with co-expressed cofactor, with or without 1,6-Hex, single measurement
[2] = tested on: HEK293FT cells transfected with TF library; assay: Screening of TF condensates based on fluorescent puncta; assay type: cell-based; settings: Figure 1B numerical data; TF library screen, one value per transcriptional factor
Method: TF plasmids were automatically added to black-walled 384-well plates at 80 ng per well to reach a final concentration of 1.6 μg/ml. Polyethylenimine (PEI, Sigma) was then added to the plasmid-loaded plates at 240 ng per well (4.8 μg/ml). Subsequently, HEK293FT cells were seeded into the plate at 2000 cells per well. After 60 h, cells were cultured in medium with or without glucose for 12 h, and then fixed with 4% paraformaldehyde (PFA) at room temperature for 30 min. After three washes with PBS, fixed cells were permeabilized with 0.05% Triton X-100 for 15 min. Thereafter, cells were blocked with 5% BSA for 1 h, and then incubated overnight with anti-Flag (Sigma F3165, 1:200) and anti-GAL4 (Abbkine ABP57232, 1:200) primary antibodies at 4 °C. The cells were then gently washed with PBS, followed by being incubated with Alexa Fluor Plus 488 goat anti-mouse IgG secondary antibody (Thermo A32723, 1:400) or Alexa Fluor Plus 488 goat anti-rabbit IgG secondary antibody (Thermo A32731, 1:400) for 1 h. The plates were kept at 4 °C in the dark before being analyzed using an Opera System (Perkin Elmer). Fifty random fields per well were scanned and analyzed using the Columbus Plus Image Data Storage and Analysis System (Perkin Elmer).

CTGF mRNA = assay: RT-PCR of TEAD4 target genes; assay type: cell-based
Method: For RT-PCR, total RNA was isolated from cells using RNA Isolator Total RNA Extraction Reagent (Vazyme) according to the manufacturer’s instructions. The isolated RNA was reverse transcribed into cDNA using HiScpt II (Vazyme). Quantitative RT-PCR was performed using a CFX96^TM Real-Time system (Bio-Rad) and SYBR Green PCR master mix (Yeasen). The fold change in the gene expression was calculated using the comparative Ct method, and three replicates were tested for each cDNA sample. ACTB was used as an internal reference. Transcript copies of TEAD4 were determined by generating standard curves using plasmid DNA (TEAD4). Each experiment was repeated at least three times. The sequences of the primers are listed in Appendix Table S1.

[3] = tested on: CTGF promoter occupancy in HEK293FT cells; assay: ChIP-qPCR; assay type: cell-based; settings: VGLL4-overexpressing HEK293FT cells + 1,6-Hex; three biological replicates
Method: ChIP was carried out following a procedure previously described (An et al, [2018]). Briefly, cells were first cross-linked with freshly prepared formaldehyde (final concentration 1.42%) for 15 min, followed by addition of glycine (125 mM) for 5 min at room temperature. After a two-round wash with cold PBS, cells were scraped and collected by centrifuge. Resulting pelleted cells were resuspended in 400 μl of ChIP lysis buffer (50 mM HEPES/KOH, pH 7.5; 140 mM NaCl; 1 mM EDTA; 1% Triton X-100; 0.1% Na-deoxycholate and protease inhibitors) and subjected to sonication with Bioruptor at high power for 15 cycles (30 s on and 30 s off for each cycle) to shear the chromatin. Samples were then further diluted twice with lysis buffer and the diluted samples were centrifuged to clear the supernatants. Meanwhile, eighty microliters of each of the supernatants were directly processed to extract total DNA as whole-cell input. […] Prewashed protein A/G beads (L2118; Santa Cuz) were added into these samples, which were then incubated for another 3 h. These incubated samples were washed five times with ChIP lysis buffer and then mixed with 100 μl of 10% chelex (1421253; Bio-Rad), followed by being boiled for 10 min and centrifuged at 4 °C for 1 min. Resulting supernatants were transferred to new tubes. Subsequently, another 120 μl of MilliQ water were added to each fraction of beads pellet, and the resulting mixtures were vortexed for 10 s, and then centrifuged again to spin down the beads. The supernatants were combined as templates for follow-up qPCR analysis.

[4] = tested on: MYC / CYR61 promoter-enhancer interactions in HEK293FT cells; assay: Chromatin conformation capture (3C) assay; assay type: cell-based; settings: VGLL4-overexpressing HEK293FT cells + 1,6-Hex; three biological replicates
Method: The 3C assay was performed following a protocol described previously ([…] et al, [2007]). Briefly, cells were incubated with 0.05% trypsin for 10 min before detaching. Collected cells were cross-linked with 2% formaldehyde for 10 min, followed by treatment with 0.125 M glycine for 5 min to quench the cross-linking reaction. Cells were then pelleted and incubated with a lysis buffer (10 mM Tris-HCl pH 7.5, 10 mM NaCl, 5 mM MgCl2 and 0.1 mM EGTA) at 4 °C for 15 min. Resulting pelleted nuclei were digested with Hind-III restriction enzyme (NEB) at 37 °C overnight and subsequently ligated with T4 DNA ligase (NEB) at 16 °C for 4 h. Thereafter, the samples were incubated at 65 °C overnight to de-crosslink the protein-DNA complexes and were subjected to phenol-chloroform extraction and ethanol precipitation to obtain the 3C templates. Primers flanking the Hind-III restriction sites located close to TEAD4-targeted gene CYR61 (Xie et al, [2019]) or MYC (Zanconato et al, [2015]) promoter (anchor primers) and enhancers were used to quantitively measure the promoter-enhancer interactions. The primers used are listed in Appendix Table S1.

Compound	Z score of condensed fraction [2]	other results
RCOR3		Z score of cell growth (HGC-27 cells): 0.05778; Z score of condensed fraction (GFP-TEAD4 condensates): 1.432
VGLL4: transcriptional cofactor protein with two TDU domains binding TEAD4		Z score of cell growth (HGC-27 cells): 3.062; Condensed fraction ([1]; replicate 1 of 9): 31.2622%; Condensed fraction ([1]; replicate 2 of 9): 58.3357%; Condensed fraction ([1]; replicate 3 of 9): 38.0997%; Condensed fraction ([1]; replicate 4 of 9): 50.0073%; Condensed fraction ([1]; replicate 5 of 9): 50.0033%; Condensed fraction ([1]; replicate 6 of 9): 46.4819%; Condensed fraction ([1]; replicate 7 of 9): 42.8861%; Condensed fraction ([1]; replicate 8 of 9): 42.8738%; Condensed fraction ([1]; replicate 9 of 9): 35.7201%; Z score of condensed fraction (GFP-TEAD4 condensates): -4.055
ZNF34	-0.5261	
OCCCCCCO [1,6-Hex, 1,6-hexanediol]		Effect on GLUP-induced CTGF downregulation (CTGF mRNA; GLUP-treated cells with or without 1,6-Hex, mRNA): obviously abrogated GLUP-induced downregulation of CTGF; CTGF mRNA level (CTGF mRNA; VGLL4-overexpressing HEK293FT cells + 1,6-Hex 0.25% v/v, three biological replicates): 1.31 and 0.86 and 1.18; ChIP-qPCR enrichment of CTCF on CTGF promoter [3]: 0.0726 and 0.0717 and 0.0639; ChIP-qPCR enrichment of H3K27ac on CTGF promoter [3]: 0.0982 and 0.0959 and 0.0952; ChIP-qPCR enrichment of RNA Pol II on CTGF promoter [3]: 0.1941 and 0.1778 and 0.182; 3C interaction promoter-enhance1 (MYC locus) [4]: 0.8 and 0.75 and 0.85; 3C interaction promoter-enhance 4 (MYC locus) [4]: 0.8 and 0.65 and 0.74
ZNF230	0.8569	
HOXB4	-1.061	
ZNF92	0.2513	
NPM1	0.01602	
TIGD4	-0.7471	
ZKSCAN8	-0.06563	
HIVEP2	-0.8032	
ZNF57	0.3	
DMBX1	-0.1986	
HOXD10	-0.4162	
TFAP2D	-0.6052	
XRCC6	-0.8161	

Compound	Z score of condensed fraction [2]	other results
PRDM13	-0.08172	
HOXA5	-1.091	
ZNF177	-0.2364	
ZNF677	-0.6787	
ZNF549	2.12	
SP7	-0.6845	
ZNF333	-0.8758	
TADA1L	-0.6293	
HOXD12	0.1237	
ATF4/CREB2	2.625	
HOXB5	-0.4916	
RERE	-0.9918	
ZNF621	-0.6157	
SUMO1	-0.2512	
OTX1	-0.7284	
